The source of these data is paper PMC7531004, “Discovery of gramicidin A analogues with altered activities by multidimensional screening of a one-bead-one-compound library” (Nature Communications, 2020).

Where a SMILES comes first, the peptide text is derived from it. [ ]: non-standard residue; d: D form. The star is where a group is joined. NHCH2CH2OH = OCCN*; For = O=C*

The nature of data set [1]: H+/Na+ transport assay of bead-derived peptides (one-point).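 Note: relative to parent gramicidin A activity set to 1.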 The following applies: bead-derived peptide solution, EYPC/EYPG LUVs. Details: key: relative activity; mean of two control wells = 1.00. The format is biochemical. An outline of the steps: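 One-point screen: peptide + pyranine-loaded LUVs, 30 min RT with vortexing, 96-well. Read-out is fluorescence intensity scaled as 100 × (Ix – I0)/(Imax – I0). Imax from Triton X-100, I0 from untreated vesicles, and the mean of the two control wells is set to 1.00.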

Data set [2] relates to P388 mouse leukemia cells. To be noted: 92 h. The method, boiled down:
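First, library peptide stocks are diluted 250-fold in RPMI1640 with 10% heat-inactivated FBS. Next, they are mixed with P388 cells to give 1 × 10^4 cells/mL and incubated 92 h at 37 °C, 5% CO2. Finally, viability (%) is scored by WST-1 absorbance at 415 nm.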

Data set [3] deals with Streptococcus pyogenes SSI-9. Kind of data set: Antibacterial activity assay of bead-derived peptides (three concentrations). The format is cell-based. More on the design: key: +++: inhibition by the 640-fold diluted peptide solution; ++: inhibition by the 160-fold diluted solution; +: inhibition by the 40-fold diluted solution; -: no inhibition. The following applies: S. pyogenes, bead-derived peptide solution, three concentrations. The method, boiled down: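 Bead-derived library peptide stocks in DMSO were tested undiluted and after 4- and 16-fold DMSO dilution against S. pyogenes SSI-9 (2 × 10^5 CFU/well) in cation-adjusted Mueller Hinton Broth with 5% laked horse blood. After 18 h at 37 °C, wells were scored for precipitation of grown cells.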

Regarding `CC(C)C[C@@H](NC(=O)[C@H](C)NC(=O)CNC(=O)[C@@H](NC=O)C(C)C)C(=O)N[C@@H](C)C(=O)N[C@H](CC(C)C)C(=O)N[C@H](C(=O)N[C@H](CC(C)C)C(=O)N[C@@H](Cc1c[nH]c2ccccc12)C(=O)N[C@@H](C(=O)N[C@@H](Cc1c[nH]c2ccccc12)C(=O)N[C@H](CC(C)C)C(=O)N[C@@H](Cc1c[nH]c2ccccc12)C(=O)N[C@@H](C(=O)N[C@@H](Cc1c[nH]c2ccccc12)C(=O)NCCO)[C@H](C)O)C(C)C)C(C)C` [compound 5508] (For-VGA[dL]A[dL]V[dL]W[dV]W[dL]W[dT]W-NHCH2CH2OH), in data set [1], the “H+/Na+ transport activity normalized against the value of 1 (1.00)” value (“H+/Na+ transport activity normalized” for short) was determined as 1.19. In data set [2], the cell viability/% is listed as 100.0%. Further, the antibacterial activity entry in data set [3] was “-”.
Regarding `CC(C)C[C@@H](NC(=O)[C@H](C)NC(=O)[C@H](NC(=O)[C@H](C)NC(=O)CNC(=O)[C@@H](NC=O)C(C)C)[C@H](C)O)C(=O)N[C@H](C(=O)N[C@@H](C(=O)N[C@@H](Cc1c[nH]c2ccccc12)C(=O)N[C@H](CC(C)C)C(=O)N[C@@H](Cc1c[nH]c2ccccc12)C(=O)N[C@H](CC(C)C)C(=O)N[C@@H](Cc1c[nH]c2ccccc12)C(=O)N[C@@H](C(=O)N[C@@H](Cc1c[nH]c2ccccc12)C(=O)NCCO)C(C)C)C(C)C)C(C)C` [compound 5522] (For-VGA[dT]A[dL]V[dV]W[dL]W[dL]W[dV]W-NHCH2CH2OH), the “H+/Na+ transport activity normalized” value in data set [1] worked out at 1.27. In data set [2], this molecule gave a cell viability/% of 100.0%. The antibacterial activity entry in data set [3] was “-”.
`CC(C)C[C@@H](NC(=O)[C@H](Cc1c[nH]c2ccccc12)NC(=O)[C@H](NC(=O)[C@H](Cc1c[nH]c2ccccc12)NC(=O)[C@@H](CC(C)C)NC(=O)[C@@H](NC(=O)[C@H](NC(=O)[C@H](C)NC(=O)[C@H](NC(=O)[C@H](C)NC(=O)CNC(=O)[C@@H](NC=O)C(C)C)C(C)C)C(C)C)C(C)C)C(C)C)C(=O)N[C@@H](Cc1c[nH]c2ccccc12)C(=O)N[C@@H](C(=O)N[C@@H](Cc1c[nH]c2ccccc12)C(=O)NCCO)C(C)C` [compound 5526] (For-VGA[dV]A[dV]V[dL]W[dV]W[dL]W[dV]W-NHCH2CH2OH): in data set [1], the “H+/Na+ transport activity normalized” value turned out to be 1.17. This molecule also had a cell viability/% in data set [2] of 100.0%. Also, the antibacterial activity result in data set [3] is recorded as “+”.
Consider `CNC(=O)C[C@@H](NC(=O)[C@H](Cc1c[nH]c2ccccc12)NC(=O)[C@@H](CC(C)C)NC(=O)[C@H](Cc1c[nH]c2ccccc12)NC(=O)[C@H](NC(=O)[C@H](Cc1c[nH]c2ccccc12)NC(=O)[C@@H](CC(C)C)NC(=O)[C@@H](NC(=O)[C@H](NC(=O)[C@H](C)NC(=O)[C@H](NC(=O)[C@H](C)NC(=O)CNC(=O)[C@@H](NC=O)C(C)C)C(C)C)C(C)C)C(C)C)C(C)C)C(=O)N[C@@H](Cc1c[nH]c2ccccc12)C(=O)NCCO` [compound 5538] (For-VGA[dV]A[dV]V[dL]W[dV]W[dL]W[dD](NHMe)W-NHCH2CH2OH), for which the “H+/Na+ transport activity normalized” value in data set [1] stood at 1.06. Moreover, the cell viability/% in data set [2] worked out at 100.0%. Besides, in data set [3], the antibacterial activity entry was “-”.
`CC(C)C[C@@H](NC(=O)[C@H](Cc1c[nH]c2ccccc12)NC(=O)[C@H](NC(=O)[C@@H](NC(=O)[C@H](NC(=O)[C@H](C)NC(=O)[C@H](NC(=O)[C@H](C)NC(=O)CNC(=O)[C@@H](NC=O)C(C)C)C(C)C)C(C)C)C(C)C)C(C)C)C(=O)N[C@@H](Cc1c[nH]c2ccccc12)C(=O)N[C@@H](C(=O)N[C@@H](Cc1c[nH]c2ccccc12)C(=O)N[C@@H](C(=O)N[C@@H](Cc1c[nH]c2ccccc12)C(=O)NCCO)C(C)C)C(C)C` [compound 5570] (For-VGA[dV]A[dV]V[dV]W[dL]W[dV]W[dV]W-NHCH2CH2OH): the “H+/Na+ transport activity normalized” value in data set [1] amounted to 1.26. Moreover, the cell viability/% in data set [2] stood at 96.8%. In addition, the antibacterial activity entry in data set [3] is reported as “++”.
The corresponding values for `CNC(=O)C[C@@H](NC(=O)[C@H](Cc1c[nH]c2ccccc12)NC(=O)[C@H](NC(=O)[C@H](Cc1c[nH]c2ccccc12)NC(=O)[C@H](NC(=O)[C@H](Cc1c[nH]c2ccccc12)NC(=O)[C@@H](CC(C)C)NC(=O)[C@@H](NC(=O)[C@H](NC(=O)[C@H](C)NC(=O)[C@H](NC(=O)[C@H](C)NC(=O)CNC(=O)[C@@H](NC=O)C(C)C)C(C)C)C(C)C)C(C)C)C(C)C)C(C)C)C(=O)N[C@@H](Cc1c[nH]c2ccccc12)C(=O)NCCO` [compound 5604] (For-VGA[dV]A[dV]V[dL]W[dV]W[dV]W[dD](NHMe)W-NHCH2CH2OH) are 1.03, 69.7% and “-”.
`CC(C)C[C@@H](NC(=O)[C@H](C)NC(=O)CNC(=O)[C@@H](NC=O)C(C)C)C(=O)N[C@@H](C)C(=O)N[C@H](CC(C)C)C(=O)N[C@H](C(=O)N[C@H](CC(C)C)C(=O)N[C@@H](Cc1c[nH]c2ccccc12)C(=O)N[C@@H](C(=O)N[C@@H](Cc1c[nH]c2ccccc12)C(=O)N[C@@H](C(=O)N[C@@H](Cc1c[nH]c2ccccc12)C(=O)N[C@@H](C(=O)N[C@@H](Cc1c[nH]c2ccccc12)C(=O)NCCO)C(C)C)C(C)C)C(C)C)C(C)C` [compound 5611] (For-VGA[dL]A[dL]V[dL]W[dV]W[dV]W[dV]W-NHCH2CH2OH): the “H+/Na+ transport activity normalized” value in data set [1] was found to be 1.17. In data set [2], this molecule displayed a cell viability/% of 3.9%. Besides, in data set [3], the antibacterial activity result is “+”.
Consider `CC(C)C[C@@H](NC(=O)[C@@H](NC(=O)[C@H](NC(=O)[C@H](C)NC(=O)[C@H](NC(=O)[C@H](C)NC(=O)CNC(=O)[C@@H](NC=O)C(C)C)[C@H](C)O)C(C)C)C(C)C)C(=O)N[C@@H](Cc1c[nH]c2ccccc12)C(=O)N[C@@H](C(=O)N[C@@H](Cc1c[nH]c2ccccc12)C(=O)N[C@@H](C(=O)N[C@@H](Cc1c[nH]c2ccccc12)C(=O)N[C@@H](C(=O)N[C@@H](Cc1c[nH]c2ccccc12)C(=O)NCCO)C(C)C)C(C)C)C(C)C` [compound 5623] (For-VGA[dT]A[dV]V[dL]W[dV]W[dV]W[dV]W-NHCH2CH2OH), for which the “H+/Na+ transport activity normalized” value in data set [1] was determined as 1.11. Besides, in data set [2], the cell viability/% came out at 80.0%. In data set [3], the antibacterial activity entry is “-”.
Take `CC(C)C[C@@H](NC(=O)[C@H](Cc1c[nH]c2ccccc12)NC(=O)[C@H](NC(=O)[C@H](Cc1c[nH]c2ccccc12)NC(=O)[C@H](NC(=O)[C@@H](NC(=O)[C@H](NC(=O)[C@H](C)NC(=O)[C@H](NC(=O)[C@H](C)NC(=O)CNC(=O)[C@@H](NC=O)C(C)C)C(C)C)C(C)C)C(C)C)C(C)C)C(C)C)C(=O)N[C@@H](Cc1c[nH]c2ccccc12)C(=O)N[C@@H](C(=O)N[C@@H](Cc1c[nH]c2ccccc12)C(=O)NCCO)C(C)C` [compound 5678] (For-VGA[dV]A[dV]V[dV]W[dV]W[dL]W[dV]W-NHCH2CH2OH): the “H+/Na+ transport activity normalized” value in data set [1] came out at 1.11. For the same molecule, the cell viability/% in data set [2] was found to be 93.2%. Besides, the antibacterial activity entry in data set [3] is on record as “++”.
Take `CC(C)C[C@@H](NC(=O)[C@H](C)NC(=O)CNC(=O)[C@@H](NC=O)C(C)C)C(=O)N[C@@H](C)C(=O)N[C@H](CC(C)C)C(=O)N[C@H](C(=O)N[C@H](CC(C)C)C(=O)N[C@@H](Cc1c[nH]c2ccccc12)C(=O)N[C@@H](C(=O)N[C@@H](Cc1c[nH]c2ccccc12)C(=O)N[C@@H](C(=O)N[C@@H](Cc1c[nH]c2ccccc12)C(=O)N[C@@H](C(=O)N[C@@H](Cc1c[nH]c2ccccc12)C(=O)NCCO)C(C)C)C(C)C)[C@H](C)O)C(C)C` [compound 5679] (For-VGA[dL]A[dL]V[dL]W[dT]W[dV]W[dV]W-NHCH2CH2OH): in data set [1], the “H+/Na+ transport activity normalized” value is listed as 1.06. In data set [2], the cell viability/% is reported as 90.5%. For the same molecule, the antibacterial activity entry in data set [3] is recorded as “-”.
The corresponding values for `CC(C)C[C@@H](NC(=O)[C@H](C)NC(=O)[C@H](NC(=O)[C@H](C)NC(=O)CNC(=O)[C@@H](NC=O)C(C)C)C(C)C)C(=O)N[C@H](C(=O)N[C@H](CC(C)C)C(=O)N[C@@H](Cc1c[nH]c2ccccc12)C(=O)N[C@@H](C(=O)N[C@@H](Cc1c[nH]c2ccccc12)C(=O)N[C@H](CC(C)C)C(=O)N[C@@H](Cc1c[nH]c2ccccc12)C(=O)N[C@H](CC(C)C)C(=O)N[C@@H](Cc1c[nH]c2ccccc12)C(=O)NCCO)C(C)C)C(C)C` [compound 5699] (For-VGA[dV]A[dL]V[dL]W[dV]W[dL]W[dL]W-NHCH2CH2OH) are 1.05, 36.7% and “+”.
`CNC(=O)C[C@@H](NC(=O)[C@@H](NC(=O)[C@@H](CC(C)C)NC(=O)[C@H](C)NC(=O)[C@@H](CC(C)C)NC(=O)[C@H](C)NC(=O)CNC(=O)[C@@H](NC=O)C(C)C)C(C)C)C(=O)N[C@@H](Cc1c[nH]c2ccccc12)C(=O)N[C@H](CC(C)C)C(=O)N[C@@H](Cc1c[nH]c2ccccc12)C(=O)N[C@H](CC(C)C)C(=O)N[C@@H](Cc1c[nH]c2ccccc12)C(=O)N[C@@H](C(=O)N[C@@H](Cc1c[nH]c2ccccc12)C(=O)NCCO)[C@H](C)O` [compound 5746] (For-VGA[dL]A[dL]V[dD](NHMe)W[dL]W[dL]W[dT]W-NHCH2CH2OH): the “H+/Na+ transport activity normalized” value in data set [1] is 1.26. Besides, the cell viability/% in data set [2] was 100.0%. Besides, in data set [3], the antibacterial activity result was “-”.
